Data: paper PMC6154692, “Determination of Vancomycin in Human Serum by Cyclodextrin-Micellar Electrokinetic Capillary Chromatography (CD-MEKC) and Application for PDAP Patients” (Molecules : A Journal of Synthetic Chemistry and Natural …, 2017)

Legend:
[1] = intraperitoneal, in the presence of peritonitis; ref guideline of ISPD; cited from earlier work
[2] = design: method as in doi:10.1016/0378-5173(93)90252-B; details: cited from earlier work
From the text: The pH value of BGE is an important factor in CE. VCM is a glycopeptide antibiotic with quite a complex structure. It contains six functional groups which participate in acid-base equilibria. Namely, its net charge in solution strongly depends on the solution pH. […] Protonations of amino (primary and secondary amino) and three phenolate groups take place between pH 13 and 5 in multiply overlapping stages. […] Owing to t ...

[3] = Stability of VCM in spiked human serum QC samples (bench-top, 30-day, autosampler, freeze-thaw), read by CD-MEKC; type: in vitro ADME; details: for Accuracy (%), autosampler stability / Accuracy (%), freeze–thaw stability / Accuracy (%), bench-top stability / Accuracy (%), 30-day stability: found vs initial concentration, CD-MEKC UV; for Accuracy (%), autosampler stability: 25 °C for 8 h; for Accuracy (%), autosampler stability / Accuracy (%), freeze–thaw stability / Accuracy (%), bench-top stability / Accuracy (%), 30-day stability / Measured Concentration (Mean ± SD), bench-top stability / Measured Concentration (Mean ± SD), autosampler stability / Measured Concentration (Mean ± SD), freeze–thaw stability / Measured Concentration (Mean ± SD), 30-day stability: n = 5; for Accuracy (%), freeze–thaw stability: three freeze–thaw cycles; for Accuracy (%), bench-top stability: 25 °C for 2 h; for Accuracy (%), 30-day stability: −80 °C, 30 days; for Measured Concentration (Mean ± SD), bench-top stability: ambient temperature (25 °C) for 2 h; for Measured Concentration (Mean ± SD), bench-top stability / Measured Concentration (Mean ± SD), autosampler stability / Measured Concentration (Mean ± SD), freeze–thaw stability / Measured Concentration (Mean ± SD), 30-day stability: CD-MEKC UV 210 nm; for Measured Concentration (Mean ± SD), autosampler stability: spiked human serum sample, kept at ambient temperature (25 °C) for 8 h; for Measured Concentration (Mean ± SD), freeze–thaw stability: after three freeze–thaw cycles; for Measured Concentration (Mean ± SD), 30-day stability: stored at −80 °C for 30 days
Method: Analyte stability determinations comprised short-term temperature stability (bench-top stability), long-term stability (30-day stability), autosampler stability, and freeze-thaw cycles stability, which were evaluated by analyzing three QC levels in VCM. The peak areas obtained from both stability tests were compared with the peak areas obtained with freshly prepared samples. The mean values and standard deviations of the ratios between the concentrations found and initial concentration were used for stability evaluation.
The BGE used in this study was 25 mM borate buffer with 50 mM SDS and 2% sulfobutyl-β-CD (pH 9.50). It was prepared by weighting appropriate amounts of Na2B4O7∙10H2O, SDS, and sulfobutyl-β-CD, followed by thoroughly mixing and dissolving with 100 mL deionized water. NaOH (1 mol/L) was used for adjusting pH to 9.50. BGE solutions were prepared freshly every day and filtered through a 0.45 μm hydrophilic cellulose membrane filter prior to use. The separation voltage was 15 kV (+) → (−). Hydrodynamic injection mode was performed at a pressure of 0.5 psi for 5 s. The capillary was conditioned by rinsing with 0.1 mol/L NaOH (1 min) followed by BGE (5 min) sequentially between the runs in order to maintain an active and reproducible inner surface.
Standard stock solution (1 mg/mL) of VCM and the IS were prepared in methanol. Working standard solutions (ranging from 10 to 500 µg/mL) were prepared daily by diluting the stock solution to the desired concentration with deionized water. The IS solution was prepared by deionized water at the concentration of 200 µg/mL. The standard solutions were stored in brown glass vials to protect from light at 4 °C. Calibration samples were obtained by diluting standard working solutions (10 μL) with drug-free human control serum (90 μL), to span a calibration standard range of 1–100 µg/mL for VCM. QC samples (3, 15, 80 µg/mL) were independently prepared by spiking an appropriate amount of the working standard solution in drug-free human control serum.
A simple and rapid sample preparation was applied by protein precipitation in SiroccoTM 96-well filtration plate (Waters Corp., Milford, MA, USA). Standard curve samples (100 μL), QC samples, and subject serum samples were added individually into 96-well plates by an eight-channel hand-held pipettor. To precipitate the serum protein, 200 μL ACN (acetonitrile) solution c ontaining 100 μg/mL of the IS solution was added to each sample (standards, QCs, and samples). Sirocco plates were capped and mixed by vortexing for 3 min and held for 15 min, subsequently placed on a vacuum manifold, and filtered to remove any precipitated material. The filtrate was collected into another 96-well plate and was evaporated to dryness with a nitrogen flow at 37 °C (TURBOVAP 96, Biotage, Uppsala, Sweden). All dry residues were reconstituted by the addition of 50 μL water. Finally, the plates were vortex mixed for 1 min, followed by centrifugation for 10 min at 12,000 rpm at 4 °C using a 5804 R Eppendorf refrigerated centrifuge (Hamburg, Germany). The supernatant was transferred to the autosampler for injection onto the CE.

PDAP patients = experiment: Clinical safety observation in PDAP patients treated with i.p. vancomycin; type: in vivo, human
Method: Patients were treated with intraperitoneal (i.p.) vancomycin (Vancocin, Eli Lilly) for 1.0 g every 5–7 days. Nine PDAP patients’ samples were collected, and the trough concentrations of VCM were measured. […] Side effects were not observed in patients who were treated with VCM. The 15–20 µg/mL range was determined in three samples (17.06 µg/mL, 15.39 µg/mL, and 19.25 µg/mL), which was reported as the effective treatment window. […] In view of patients’ residual renal function and peritoneal permeability, levels <15 µg/mL were found in four samples (12.88 µg/mL, 5.48 µg/mL, 8.90 µg/mL, and 9.30 µg/mL). ISPD recommends that re-dosing is appropriate once serum vancomycin levels go below 15 µg/mL.

[4] = spiked human serum, HQC 80 µg/mL
[5] = spiked human serum, LQC 3 µg/mL
[6] = spiked human serum, MQC 15 µg/mL

For `CN[C@H](CC(C)C)C(=O)N[C@H]1C(=O)N[C@@H](CC(N)=O)C(=O)N[C@H]2C(=O)N[C@H]3C(=O)N[C@H](C(=O)N[C@H](C(=O)O)c4cc(O)cc(O)c4-c4cc3ccc4O)[C@H](O)c3ccc(c(Cl)c3)Oc3cc2cc(c3O[C@@H]2O[C@H](CO)[C@@H](O)[C@H](O)[C@H]2O[C@H]2C[C@](C)(N)[C@H](O)[C@H](C)O2)Oc2ccc(cc2Cl)[C@H]1O` [VCM, vancomycin], the “Fraction of i.p. vancomycin absorbed” value [1] is listed as “approximately 90%”, the pI value [2] is listed as “about 7.10” and the “Stability in spiked serum samples (in words)” value ([3]; bench-top, 30-day, autosampler and freeze-thaw conditions, three QC levels) is listed as “stable”. The “Accuracy (%), autosampler stability” value ([3]; HQC 80 µg/mL) was 105.70%, the “Accuracy (%), freeze–thaw stability” value ([3]; HQC 80 µg/mL) was 108.80% and the “Accuracy (%), autosampler stability” value ([3]; LQC 3 µg/mL) was 103.80%. The “Accuracy (%), freeze–thaw stability” value ([3]; LQC 3 µg/mL) was 110.40%, the “Accuracy (%), autosampler stability” value ([3]; MQC 15 µg/mL) was 107.10% and the “Accuracy (%), freeze–thaw stability” value ([3]; MQC 15 µg/mL) was 104.60%. For the same compound, the “Accuracy (%), bench-top stability” value [3, 4] was 108.40%, the “Accuracy (%), 30-day stability” value [3, 4] was 106.60% and the “Accuracy (%), bench-top stability” value [3, 5] was 107.80%. For the same compound, the “Accuracy (%), 30-day stability” value [3, 5] was 104.70%, the “Accuracy (%), bench-top stability” value [3, 6] was 102.70% and the “Accuracy (%), 30-day stability” value [3, 6] was 104.90%. For the same compound, the “Measured Concentration (Mean ± SD), bench-top stability” value ([3]; spiked human serum (table title: plasma), LQC 3 µg/mL) was 3.271 ± 0.02 µg/mL, the “Measured Concentration (Mean ± SD), autosampler stability” value ([3]; HQC 80 µg/mL) was 85.57 ± 0.29 µg/mL and the “Measured Concentration (Mean ± SD), autosampler stability” value ([3]; LQC 3 µg/mL) was 3.15 ± 0.01 µg/mL. The “Measured Concentration (Mean ± SD), autosampler stability” value ([3]; MQC 15 µg/mL) was 16.26 ± 0.09 µg/mL, the “Measured Concentration (Mean ± SD), freeze–thaw stability” value [3, 4] was 88.01 ± 0.23 µg/mL and the “Measured Concentration (Mean ± SD), bench-top stability” value [3, 4] was 87.69 ± 0.38 µg/mL. For the same compound, the “Measured Concentration (Mean ± SD), 30-day stability” value [3, 4] was 86.24 ± 0.52 µg/mL, the “Measured Concentration (Mean ± SD), freeze–thaw stability” value [3, 5] was 3.35 ± 0.02 µg/mL and the “Measured Concentration (Mean ± SD), 30-day stability” value [3, 5] was 3.18 ± 0.01 µg/mL. The “Measured Concentration (Mean ± SD), freeze–thaw stability” value [3, 6] was 15.88 ± 0.07 µg/mL, the “Measured Concentration (Mean ± SD), bench-top stability” value [3, 6] was 15.59 ± 0.09 µg/mL and the “Measured Concentration (Mean ± SD), 30-day stability” value [3, 6] was 15.92 ± 0.08 µg/mL. The Side effects (PDAP patients; PDAP patients treated with VCM, i.p. 1.0 g every 5–7 days) was “not observed” and the “Changes in renal function before and after treatment” value (PDAP patients; nine PDAP patients, i.p. vancomycin 1.0 g every 5–7 days) was “No significant changes”.
